This note sets out measurements from paper PMC7661129, “Evaluation of Binding of Rosmarinic Acid with Human Transferrin and Its Impact on the Protein Structure: Targeting Polyphenolic Acid-Induced Protection of Neurodegenerative Disorders” (Oxidative Medicine and Cellular Longevity, 2020).

Molecules are shown by their SMILES.

The target of assay [1] is T1, Human transferrin (hTf) (Homo sapiens, UniProt P02787).
T1 construct: gene TF
The assay is described as follows: intrinsic fluorescence quenching, modified Stern-Volmer. The assay is classed as binding. Conditions: 301 K; 20 mM sodium phosphate pH 7.4; n = 1.25; double-log. From the text: intrinsic fluorescence quenching, modified Stern-Volmer on Human transferrin (hTf)

Assay [2] concerns the target T1, Human transferrin (hTf). The assay is described as follows: isothermal titration calorimetry (VP-ITC). The assay is classed as binding. Conditions: 25 °C; 20 mM sodium phosphate pH 7.4; four-site fit, first site; large fit error, Ka4 printed negative; unreliable.

T1 sequence (P02787 20-698): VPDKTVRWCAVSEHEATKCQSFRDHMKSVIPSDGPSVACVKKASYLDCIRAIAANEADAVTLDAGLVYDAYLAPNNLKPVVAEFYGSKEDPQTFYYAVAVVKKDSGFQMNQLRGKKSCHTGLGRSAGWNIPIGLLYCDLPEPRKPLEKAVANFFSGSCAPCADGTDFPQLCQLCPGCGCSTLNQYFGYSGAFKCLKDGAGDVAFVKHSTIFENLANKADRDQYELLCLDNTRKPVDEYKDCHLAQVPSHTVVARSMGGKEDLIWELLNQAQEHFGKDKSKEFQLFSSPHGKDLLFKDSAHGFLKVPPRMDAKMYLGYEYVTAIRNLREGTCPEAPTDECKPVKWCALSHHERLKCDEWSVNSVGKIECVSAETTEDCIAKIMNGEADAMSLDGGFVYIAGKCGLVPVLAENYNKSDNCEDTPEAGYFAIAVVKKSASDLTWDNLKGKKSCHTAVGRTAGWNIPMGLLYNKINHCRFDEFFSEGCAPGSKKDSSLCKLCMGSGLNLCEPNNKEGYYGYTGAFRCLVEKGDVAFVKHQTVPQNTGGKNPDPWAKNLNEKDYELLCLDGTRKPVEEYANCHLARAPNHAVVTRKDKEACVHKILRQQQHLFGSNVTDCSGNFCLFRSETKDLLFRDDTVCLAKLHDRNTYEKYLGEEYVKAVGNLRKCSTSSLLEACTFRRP

For `O=C(/C=C/c1ccc(O)c(O)c1)O[C@H](Cc1ccc(O)c(O)c1)C(=O)O` [Rosmarinic acid], the “K (10^7 M^-1)” value on Human transferrin (hTf) [1] is on record as 0.107 × 10^7 M^-1. The compound further showed a Ka1 on Human transferrin (hTf) [2] of 115000 ± 81000 M⁻¹.
